Measurements: patent US20220016114A1, “Heart Rate Decreasing Agent” (FURUKAWA RESEARCH OFFICE CO., LTD., priority 2018, published 2022)
“Also recorded” adds a separate entry of the source.

System: heart rate of a person
Experiment: Variation in heart rate before and after oral ingestion of orotic acid tablets, at rest and after drinking
Format: in vivo, human
Conditions: for Symptoms (4 to 5 hours after orotic acid ingestion): placebo: languor
Method: Tablets consisting of orotic acid were orally ingested and the variation in heart rate was measured before and after oral ingestion. The test subject was a person. Although they were told at their medical checkup that their cholesterol was slightly high, they had not taken any medication and had no preexisting condition. Their blood pressure was in the normal range, and they had never been diagnosed with a blood pressure problem in the past. Their heart rate was slightly high at about 89 to 92 beats/min, and rarely fell below 86 beats/min even at rest. Since the heart rate quickly increases due to exercise and tension or the like, the measurement day was spent as much as possible doing desk work and the like, and the measurement was made under stable conditions after sitting on a chair for at least several minutes. They were drinking 2 cans of beer and 2 to 3 double glasses of shochu daily. Their heart rate after drinking was increasing to about 105 to 115 beats/min (120 beats/min in rare cases), and they were feeling drunk and mild palpitation. They were also feeling sleepy on some days. The test subject ingested a tablet containing 200 mg of orotic acid by oral administration, and the measurement of their heart rate was started.

`O=C(O)c1cc(=O)[nH]c(=O)[nH]1` [Orotic acid, 1,2,3,6-tetrahydro-2,6-dioxo-4-pyrimidinecarboxylic acid] was tested, and the “Overall effect on heart rate and on daily palpitation and fatigue” value (conclusion from Table 1, person, 200 mg oral) was “a decrease in heart rate was clearly observed; also recorded: improved the palpitation and fatigue that were felt on a daily basis”, the “Heart rate after stabilisation (later than 4 hours after ingestion)” value (person, 200 mg oral) was “in the 70s beats/min to the lower 80s beats/min” and the “Time after ingestion from which heart rate gradually decreased” value (person, 200 mg oral) was “about 2 hours”. For the same molecule, the “Symptoms (after drinking)” value (person, 200 mg oral, after usual beer and shochu, placebo: slight drunkenness, mild palpitation, drowsiness) was “felt almost no drunkenness or palpitation”, the “Heart rate 1 to 2 hours after drinking” value (person, 200 mg oral, usual amount of beer and shochu after the decrease in heart rate, placebo 105 to 115 beats/min) was 85 to 103 beats/min and the “Symptoms (4 to 5 hours after orotic acid ingestion)” value (person, 200 mg oral) was “Clear head; also recorded: No languor”. The “Symptoms (4 to 5 hours after orotic acid ingestion)” value (person, 200 mg oral, listed as orotic acid) was “their head was more refreshed and no longer felt lethargic”, the “Heart rate 4 hours after ingestion” value (person, 200 mg oral, usual heart rate about 89 to 92 beats/min) was ≤ 80 beats/min and the “Heart rate 4 to 5 hours after orotic acid ingestion” value (person, tablet containing 200 mg orotic acid orally, sitting at rest, placebo 88 to 93 beats/min) was 77 to 82 beats/min.
